In ChEMBL document CHEMBL4020850, “Discovery of LSZ102, a Potent, Orally Bioavailable Selective Estrogen Receptor Degrader (SERD) for the Treatment of Estrogen Receptor Positive Breast Cancer” (J Med Chem, 2018):
≈ marks a conversion by molar mass, not a printed value. Calls of active or inactive are those of the source. The rule behind the calls is not given here.

Tests used:
Estrogen receptor [1] = biological target: T1, Estrogen receptor (Homo sapiens, UniProt P03372); test: Induction of selective estrogen receptor alpha degradation in human MCF7 cells harboring TK-ERE-Luc assessed as reduction in estradiol-induced transcriptional activity after 24 hrs by luciferase reporter gene assay; type: cell-based
T1 sequence (P03372 whole entry): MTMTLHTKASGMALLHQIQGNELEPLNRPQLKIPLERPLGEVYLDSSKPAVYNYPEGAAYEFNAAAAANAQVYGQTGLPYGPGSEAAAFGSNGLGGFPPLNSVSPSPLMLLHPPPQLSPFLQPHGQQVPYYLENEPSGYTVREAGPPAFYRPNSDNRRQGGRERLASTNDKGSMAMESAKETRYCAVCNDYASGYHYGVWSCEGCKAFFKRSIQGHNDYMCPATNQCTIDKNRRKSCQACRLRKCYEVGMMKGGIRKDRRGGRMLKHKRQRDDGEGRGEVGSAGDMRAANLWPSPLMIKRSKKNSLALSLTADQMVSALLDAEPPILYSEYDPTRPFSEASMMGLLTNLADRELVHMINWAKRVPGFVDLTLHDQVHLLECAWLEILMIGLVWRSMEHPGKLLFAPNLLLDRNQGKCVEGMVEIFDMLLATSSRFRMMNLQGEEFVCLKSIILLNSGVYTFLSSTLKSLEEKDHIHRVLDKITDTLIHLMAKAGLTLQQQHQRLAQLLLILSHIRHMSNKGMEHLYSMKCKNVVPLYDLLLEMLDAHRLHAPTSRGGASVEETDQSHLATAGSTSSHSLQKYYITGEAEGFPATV

Mus musculus [2] = test: In vivo inhibition of ER protein level in NOD SCID gamma mouse xenografted with human MCF7 cells at 5 mg, sc administered once in a week for 48 days post tumor implantation measured 7 hrs post last dose by Western blot method relative to control; type: functional
Mus musculus [3] = test: Downregulation of progesterone receptor mRNA level in NOD SCID gamma mouse xenografted with human MCF7 cells at 5 mg, sc administered once in a week for 48 days post tumor implantation measured 7 hrs post last dose by RT-PCR method; type: functional, organism-based
MCF7 [4] = test: Antitumor activity against human MCF7 cells xenografted in NOD SCID gamma mouse assessed as change in tumor volume at 5 mg, sc administered once in a week for 48 days post tumor implantation measured 7 hrs post last dose; type: functional
Estrogen receptor [5] = biological target: T1, Estrogen receptor; test: Induction of selective estrogen receptor alpha degradation in human MCF7 cells after 18 to 24 hrs by in-cell Western analysis; type: cell-based
[6] = Equilibrium solubility in pH 6.8 buffer at 1 mM after 16 hrs by HPLC based shake flask method; type: physicochemical
MCF7 [7] = test: Antiproliferative activity against human MCF7 cells after 6 days in presence of estradiol by CellTiter-Glo assay; details: MCF7, 144 h
[8] = Oral bioavailability in C57BL/6 mouse at 3 mg/kg; type: ADME, organism-based; details: in vivo
[9] = Cmax in C57BL/6 mouse at 3 mg/kg, po; type: ADME, organism-based; set-up: dose 3 mg/kg, route oral; details: in vivo
[10] = Clearance in C57BL/6 mouse at 1 mg/kg, iv or 3 mg/kg, po; type: ADME, organism-based; details: in vivo
[11] = Oral bioavailability in Sprague-Dawley rat at 3 mg/kg; type: ADME, organism-based; details: in vivo
[12] = Cmax in Sprague-Dawley rat at 3 mg/kg, po; type: ADME, organism-based; set-up: dose 3 mg/kg, route oral; details: in vivo
[13] = Clearance in Sprague-Dawley rat at 1 mg/kg, iv or 3 mg/kg, po; type: ADME, organism-based; details: in vivo

| Compound | bioavailability [8] [%] | Cmax [9] [nM] | clearance [10] [mL/min/kg] | also measured |
| --- | --- | --- | --- | --- |
| O=C(O)/C=C/c1ccc(Nc2c(-c3ccc(O)cc3)sc3cc(O)ccc23)cc1 |  |  |  | IC50 (Estrogen receptor [1]): > 10000 nM |
| C[C@]12CC[C@@H]3c4ccc(O)cc4C[C@@H](CCCCCCCCC[S+]([O-])CCCC(F)(F)C(F)(F)F)[C@H]3[C@@H]1CC[C@@H]2O (stereo not given in full) [FULVESTRANT] |  |  |  | inhibition (INH) (Mus musculus [2]): 67%; Activity (Mus musculus [3]): Active; T/C (MCF7 [4]): 24% |
| COCc1ccccc1-c1sc2cc(O)ccc2c1Oc1ccc(/C=C/C(=O)O)cc1 |  |  |  | IC50 (Estrogen receptor [5]): 3 nM |
| O=C(/C=C/c1ccc(Oc2c(-c3ccc(O)cc3)sc3cc(O)ccc23)cc1)NCCO |  |  |  | solubility thermodynamic at 16 h, 1000 µM [6]: 11 µM (≈ 4.92 µg/mL) |
| CC/C(=C(\c1ccc(O)cc1)c1ccc(OCCN(C)C)cc1)c1ccccc1 [AFIMOXIFENE] |  |  |  | IC50 (MCF7 [7]): 9.9 nM |
| CC(F)(F)c1ccccc1-c1sc2cc(O)ccc2c1Oc1ccc(/C=C/C(=O)O)cc1 | 5 | 187 | 14 |  |
| CC(C)c1ccccc1-c1sc2cc(O)ccc2c1Oc1ccc(/C=C/C(=O)O)cc1 | 13 | 1180 | 15 |  |
| Cc1cc(-c2sc3cc(O)ccc3c2Oc2ccc(/C=C/C(=O)O)cc2)ccc1O | 2 | 46 | 46 |  |
| O=C(O)/C=C/c1ccc(Oc2c(-c3ccc(O)cc3)sc3cc(O)ccc23)cc1 |  |  |  | bioavailability [11]: 6%; Cmax [12]: 80 nM; solubility thermodynamic at 16 h, 1000 µM [6]: 340 µM (≈ 138 µg/mL); clearance [13]: 54 mL/min/kg |
| CNC(=O)/C=C/c1ccc(Oc2c(-c3ccc(O)cc3)sc3cc(O)ccc23)cc1 |  |  |  | solubility thermodynamic at 16 h, 1000 µM [6]: < 5 µM |
| O=C(O)/C=C/c1ccc(Oc2c(-c3ccc(C(F)(F)F)cc3)sc3cc(O)ccc23)cc1 | 28 | 1380 | 6 | bioavailability [11]: 74%; Cmax [12]: 985 nM; clearance [13]: 30 mL/min/kg |
| Cc1cc(F)ccc1-c1sc2cc(O)ccc2c1Oc1ccc(/C=C/C(=O)O)cc1 | 34 | 925 | 33 |  |
